Test results from patent publication US10328075B2, “Method of treatment and compounds for use therein” (Baker Heart and Diabetes Institute, priority 2015, dated 2019).
Read-outs that look alike come from different tables or passages of the source.

Molecular target: T1, hFPR1 (Homo sapiens, UniProt P21462)
T1 construct: expressed in transfected cells
T1 sequence (P21462 1-350): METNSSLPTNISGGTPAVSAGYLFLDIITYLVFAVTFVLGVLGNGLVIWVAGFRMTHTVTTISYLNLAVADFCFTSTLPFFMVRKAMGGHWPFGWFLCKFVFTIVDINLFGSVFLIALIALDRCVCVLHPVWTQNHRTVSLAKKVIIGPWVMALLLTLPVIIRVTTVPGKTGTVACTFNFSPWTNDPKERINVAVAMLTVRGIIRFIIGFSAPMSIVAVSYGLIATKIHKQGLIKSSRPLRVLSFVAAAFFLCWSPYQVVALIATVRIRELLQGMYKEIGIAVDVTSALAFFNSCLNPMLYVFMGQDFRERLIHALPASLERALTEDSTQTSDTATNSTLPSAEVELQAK
Test: ERK1/2 phosphorylation (AlphaScreen SureFire) in hFPR1-FlpIn-CHO cells
Format: cell-based
Text: cDNDA construct and generation of stable cell lines: cDNA in pcDNA3.1^+ encoding the human formyl peptide receptors (FPR) subtypes, hFPR1, hFPR2 and hFPR3 was obtained from Invitrogen. The sequences for 3 hFPR receptors were amplified by PCR and cloned into the Gateway entry vector, pDONR202™, using the BP clonase enzyme mix, according to the manufactures' instructions (Invitrogen Inc, Carlsbad, Calif., USA). All hFPR receptors constructs in pDONR201™ were subsequently transfected into the pEF5/FRT/V5/dest vector using the LR clonase enzyme mix (Invitrogen). Receptor constructs (pEF5/FRT/V5/dest) were used to transfect FIp-In CHO cells as described previously (Valant C et al., PNAS, 2014). Cells were selected using 500 μg/mL hydromycin to generate cell lines stably expressing each receptor construct. Cells were maintained and cultured in high glucose DMEM supplemented with 10% FBS, 16 mM HEPES and 500 μg/mL hydromycin at 37° C. under a humidified atmosphere containing 5% CO2.
In the various assays described below, cells were plated into 96-well transparent cell culture plates at 4×10^4 cells per well, cultured overnight in serum-free media at 37° C. in 5% CO2.
Measurement of extracellular signal regulated kinase 1 and 2 phosphorylation (pERK1/2): Initial ERK1/2 phosphorylation at Thr202/Tyr204 time-course experiments were performed to determine the time at which ERK1/2 phosphorylation was maximal after stimulation by each agonist. Cells were seeded onto transparent 96-well cell culture plates at 4×10^4 cells per well. After 6 h, cells were washed once with PBS, and then incubated in serum-free DMEM overnight, to allow FBS-stimulated phosphorylated ERK1/2 levels to subside. […] 10% (v/v) FBS was used as a positive control, with vehicle controls also included. The reaction was terminated by removal of study drugs and lysis of cells with 100 μL of SureFire lysis buffer (TGR Biosciences). Cell were lysed in SureFire lysis buffer and transferred to 384-well opaque proxiplates. Under low-light conditions, a 1:120 (v:v) dilution of AlphaScreen beads (both acceptor and donor):Surefire reaction buffer was prepared, which was mixed with the activation buffer in a ratio of 6:1 (v:v), respectively. Plates were incubated in the dark at 37° C. for 1 h before the fluorescence signal was measured by a Fusion-α plate reader (PerkinElmer Life and Analytical Sciences, Foster city, CA, USA) with standard AlphaScreen settings. Data were normalized to the maximal response elicited by 10% (v/v) FBS at the same time point.
Receptor mediated pERK1/2 levels were determined using the AlphaScreen™ ERK1/2 SureFire™ kit, as described previously (Keov, P et al., 2014). For all experiments, 10% FBS was used as internal positive control to stimulate pERK1/2, and which the maximum responses were used for normalization of data, whilst vehicle was used as negative control.
Data analysis: All data were analysed using GraphPad Prism 6.0 (GraphPad Software, San Deigo, Calif., USA). Where appropriate, concentration-response curves were fitted to derive the maximal agonist effect (Emax), and the ligand potency estimate (pEC50), where Emax is the maximal possible response of the system (not the agonist), basal is the basal level of response in the absence of agonist, and pEC50 is the negative logarithm of the agonist concentration that gives a response halfway between Emax and basal.
In the present study, FIp-IN CHO cells and Gateway plasmid were obtained from Invitrogen Inc (Carlsbad, Calif., USA). The sequences for all 3 known human FPRs (hFPR1, hFPR2 and hFPR3) were amplified by PCR and cloned into the Gateway entry vector, pDONR202TM, using the BP clonase enzyme mix, according to the manufacturers' instructions. The hFPR pDONR201TM constructs were subsequently transfected into the pEF5/FRT/V5/dest vector using the LR clonase enzyme mix (Invitrogen).

[1] = Table 9, read-out: potency (pEC50) pERK1/2, hFPR1-FlpInCHO cells in vitro (converted)

| Compound | Time of maximal ERK1/2 phosphorylation in hFPR1-CHO cells (10 μM, pilot timecourse) [min] | Emax (Table 2, percentage of ERK1/2 phosphorylation elicited by 10% FBS, read-out: Emax (%), ERK1/2 phosphorylation, hFPR1-Flpln-CHO) [%] | EC50 (Table 2, read-out: pEC50, ERK1/2 phosphorylation, hFPR1-Flpln-CHO (converted)) [nM] | ΔLog(τ/KA), ERK1/2 phosphorylation, hFPR1-Flpln-CHO (Table 8, normalized transduction coefficient, reference agonist Cmpd43) | Emax (Table 8, percent of response elicited by 10% FBS, read-out: Emax, ERK1/2 phosphorylation, hFPR1-Flpln-CHO) [%] | EC50 (Table 8, read-out: pEC50, ERK1/2 phosphorylation, hFPR1-Flpln-CHO (converted)) [nM] | Log(τ/KA), ERK1/2 phosphorylation, hFPR1-Flpln-CHO (Table 8, transduction coefficient) | EC50 [1] [nM] | ERK Rmax (Table 10, receptor not given) | EC50 (Table 10, receptor not given, values of 10394/10396 equal the hFPR1 values of Table 9, read-out: ERK pEC50 (converted)) [nM] |
| --- | --- | --- | --- | --- | --- | --- | --- | --- | --- | --- |
| CC(C)C1C(NC(=O)Nc2ccc(Cl)cc2)C(=O)N(c2ccccc2)N1C (centres unmarked) [BIDI-002] | 5 | 61 ± 9 | 67.6 | 0.0 | 61 ± 9 | 63.1 | 7.3 ± 0.1 | 67.6 | – | – |
| Cc1cc(Cc2cccnc2)c(=O)n(CC(=O)Nc2ccc(Cl)cc2)n1 [MIPS-0010396] | – | – | – | – | – | – | – | 676 | 76 ± 2 | 676 |
